According to patent publication US8367737B2, “Method of using biothionol and biothionol-like compounds as anti-angiogenic agents” (Southern Research Institute, priority 2007, dated 2013):
Structures can show the parent of a compound that is named as a salt.

Columns and labels:
[1] = test system: Endothelial cells (HUVEC); assay: Endothelial cell migration assay; type: cell-based; details: Homo sapiens, read-out: Inhibition in Endothlial migration
Experimental: Endothelial cell migration is a key step of the angiogenesis process, which is crucial for on-site recruitment of blood vessel formation. The trans-well filter/inserts chamber of Biocoat Endothelial Cell Migration Angiogenesis System (BD Biosciences) is used for endothelial cell migration assay, which is a 24-Transwell chamber plate containing 3-μm pore size inserts coated with human fibronectin. The inserts are incubated at 37° C. with 0.1% bovine serum albumin containing endothelial cell basal medium for 1 hour. Endothelial cells (HUVEC) are starved with 0.1% bovine serum albumin in endothelial cell basal medium for 4 to 5 hours before the cell harvest and then seeded (1×10^5 per well) in upper chambers of the Transwell plate with various treatments in 100 ul of 0.1% bovine serum albumin in endothelial cell basal medium. The full growth medium that contains various chemoattractants is added in the lower chambers. The cells are allowed to migrate for 22±1 hours at 37° C. Unmigrated cells at the inside of the inserts are carefully removed with a Q-tip. Migrated cells at the lower part of the Transwell inserts are then fixed with 4% paraformaldehyde, stained with Hoechst 33342, and photographed under a fluorescent microscope. Three microscopic view fields of each filter/insert are analyzed for the number of migrated cells. Triplicate filter/insert chamber cultures are carried for each test concentration and control.

[2] = test system: Chicken embryo chorioallantoic membrane; assay: Chick chorioallantoic membrane (CAM) assay; type: in vivo; details: 10 μg; vascular density index
Source text: Chicken embryo chorioallantoic membrane provides an ideal in vivo model for the physiologic process of angiogenesis. Angiogenic modulators applied on methylcellulose discs placed on top of chicken embryo chorioallantoic membrane are able to alter the development of new blood vasculature. See Staton et al, Current Methods for Assaying Angiogenesis in vitro and in vivo, INT. J. EXP. PATHOL., 85:233-48 (2004), which is incorporated herein by reference in its entirety. The angiogenesis chorioallantoic membrane assay is used for ex vivo evaluation of the anti-angiogenic potential of synthetic compounds. Fertilized chicken eggs are incubated at 37.5° C. in a humidified egg incubator with forced air circulation. On embryo Day 3, eggs are cracked open and embryos are transferred into […] Petri plates to continue their development in a cell culture incubator at 37.5° C. Pre-made methylcellulose discs in about 2 mm in diameter are gently implanted on top of embryo chorioallantoic membrane on embryonic Day 5 and then testing compound in solution or control vehicle is applied on top of methylcellulose disc. The embryos are incubated for two more days in the cell culture incubator. The chorioallantoic membranes are examined and quantitatively analyzed for new blood vessel formation at embryonic Day 7. The treatment effects on angiogenesis are evaluated by determining vascular density index (VDI) of each CAM with viable chicken embryos. The VDI represents the number of intersections made by blood vessels with three equidistant concentric circles on the area covered by methylcellulose discs by using Image Pro Plus software. The data are expressed as average VDI based on the quantitative analysis for each treatment group (N≧5) with stander deviation.

[3] = test system: Endothelial cells (HUVEC); assay: Endothelial tube formation assay; type: cell-based; details: Homo sapiens, read-out: Inhibition in Endothlia Tube-Formation
Experimental: Human endothelial cells are cultured in vitro on extracellular matrix, which stimulates the attachment and differentiation of endothelial cells into tubules. The endothelial tube formation assay is based on this phenomenon. Endothelial cells (HUVEC) are seeded (1.5×10^4 per well) in a 96-well plates coated with extracellular matrix and treated with the target compounds at different concentrations with the full growth medium in triplicate. The cells are allowed to form endothelial tubes at 37° C. for about 18 hours and photographed under an inverted light microscope. The tubule lengths are quantified using image analysis software, Image-Pro Plus (Media Cybernetics, Inc., Silver Spring, Md.). Data are expressed as average tube lengths of three view fields for each well and triplicate wells for each treatment condition. IC50 values are calculated based on the dose curve.

[4] = test system: arterial endothelia, such as HAEC and HPAEC; assay: Cell proliferation assay (CellTiter-Glo), arterial endothelia; type: cell-based; details: Homo sapiens; 72 hours of treatment, growth medium
Experimental: (§1) Human primary cell lines, arterial endothelia, such as HAEC and HPAEC, venous endothelia HUVEC (from Cambrex BioScience Rockland Inc.), and lung fibroblasts LL47 (from the American Type Culture Collection) are cultured by following the instruction and used to evaluate the target compounds for their differential activity against human endothelia verses fibroblasts by CellTiter-Glo Luminescent Cell viability Assay. This assay, generating luminescent signals, is based on quantification of ATP levels in cell cultures. Amount of ATP produced in cell culture reflects the number of viable cells. […] Cells are seeded in 96-well plates with their growth medium, about 5×10^3 cell per well. After 24 hours, various doses of the target compounds are added to the cultures, having four replicates for each dose. After 72 hours of treatment, CellTiter-Glo reagent is added to the cultures following the manufacturer's instruction and luminescence is measured. The control groups are given DMSO vehicle only. IC50s of target compounds for endothelia and fibroblasts proliferation in their growth medium are determined based on the dose response curve and plotted against the range of concentrations.

venous endothelia HUVEC = assay: Cell proliferation assay (CellTiter-Glo), venous endothelia; type: cell-based; details: Homo sapiens, 72 hours of treatment, growth medium
Experimental: as §1

lung fibroblasts LL47 = assay: Cell proliferation assay (CellTiter-Glo), fibroblasts; type: cell-based; details: Homo sapiens, Fibroblast; 72 hours of treatment, growth medium
Experimental: as §1

Row | SMILES | inhibition at 2 µM [1] [%] | inhibition at 8 µM [1] [%] | Inhibition in CAM Assay [2] [%] | inhibition at 2 µM [3] [%] | inhibition at 8 µM [3] [%] | IC50 [4] [µM] | IC50 (venous endothelia HUVEC) [µM] | IC50 (lung fibroblasts LL47) [µM]
1 | CCCCc1oc2ccccc2c1C(=O)c1cc(I)c(OCCN(CC)CC)c(I)c1 [Amiodarone hydrochloride] | 36 | 38 | 27 | 33 | 33 | – | – | –
2 | Oc1c(Cl)cc(Cl)cc1Sc1cc(Cl)cc(Cl)c1O [Bithionol] | 5 | 100 | 30 | 19 | 38 | 2 | 6 | 10.5
3 | CN(C)CCCN1c2ccccc2CCc2ccc(Cl)cc21 [Clomipramine hydrochloride] | 58 | 63 | 19 | 12 | 26 | – | – | –
4 | OCCN1CCN(CCCN2c3ccccc3Sc3ccc(Cl)cc32)CC1 [Perphenazine] | 43 | 46 | – | 7 | 22 | 4.2 | 11.1 | 10.8
5 | Cc1nc2sccn2c(=O)c1CCN1CCC(=C(c2ccc(F)cc2)c2ccc(F)cc2)CC1 [Ritanserin] | 55 | 65 | 21 | 11 | 33 | 11 | 10.5 | > 50
6 | CC(C)(C)c1ccc(C(O)CCCN2CCC(C(O)(c3ccccc3)c3ccccc3)CC2)cc1 (centres unmarked) [Terfenadine] | 34 | 100 | 28 | 20 | 43 | 3 | 5.5 | 7
